Assay [1] has as its target T1, BK2 receptor (Rattus norvegicus, UniProt P25023).
T1 sequence (P25023 1-396): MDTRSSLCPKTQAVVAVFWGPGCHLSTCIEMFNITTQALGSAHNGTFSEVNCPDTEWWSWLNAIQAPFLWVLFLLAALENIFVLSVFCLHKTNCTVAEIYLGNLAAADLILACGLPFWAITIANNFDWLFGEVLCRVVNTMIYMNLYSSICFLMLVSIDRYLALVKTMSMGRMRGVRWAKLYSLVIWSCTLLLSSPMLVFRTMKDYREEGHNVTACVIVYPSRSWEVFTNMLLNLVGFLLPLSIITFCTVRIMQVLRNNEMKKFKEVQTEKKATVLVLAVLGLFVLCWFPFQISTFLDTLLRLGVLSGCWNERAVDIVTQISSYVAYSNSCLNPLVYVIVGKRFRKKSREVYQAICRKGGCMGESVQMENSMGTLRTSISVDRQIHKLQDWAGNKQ
The settings on record: Table C, rat uterus; P.A. = partial antagonist.

Another assay addresses T2, BK1 receptor (Oryctolagus cuniculus, UniProt P48748).
T2 construct: when administered to an intact animal; from tissue; host or cells: whole rabbit (systemic arterial blood pressure), LPS-pretreated
T2 sequence (P48748 1-352): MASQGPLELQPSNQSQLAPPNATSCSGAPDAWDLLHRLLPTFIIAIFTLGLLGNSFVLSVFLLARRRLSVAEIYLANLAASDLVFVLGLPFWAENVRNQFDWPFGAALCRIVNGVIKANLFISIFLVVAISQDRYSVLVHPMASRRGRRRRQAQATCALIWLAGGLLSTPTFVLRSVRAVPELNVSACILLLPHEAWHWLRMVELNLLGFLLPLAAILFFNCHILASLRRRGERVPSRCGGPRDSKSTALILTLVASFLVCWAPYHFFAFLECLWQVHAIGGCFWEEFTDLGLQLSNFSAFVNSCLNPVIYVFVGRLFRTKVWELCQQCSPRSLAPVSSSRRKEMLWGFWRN
Put plainly: rabbit aorta in vitro, reversal of des-Arg^9 -BK contraction. The conditions noted are these: Table G; negative log of molar concentration causing 50% reversal of 10^-7 M des-Arg^9 -BK contraction. The format is cell-based.

Assay [2] concerns the target T1, BK2 receptor. Nature of the assay: cell-based.
The target in assay [3] is T3, BK2 receptor (Cavia porcellus, UniProt O70526).
T3 construct: tested for activity on guinea pig ileum in vitro on the standard tissue bath/strain gauge system; from tissue; host or cells: guinea pig ileum
T3 sequence (O70526 1-372): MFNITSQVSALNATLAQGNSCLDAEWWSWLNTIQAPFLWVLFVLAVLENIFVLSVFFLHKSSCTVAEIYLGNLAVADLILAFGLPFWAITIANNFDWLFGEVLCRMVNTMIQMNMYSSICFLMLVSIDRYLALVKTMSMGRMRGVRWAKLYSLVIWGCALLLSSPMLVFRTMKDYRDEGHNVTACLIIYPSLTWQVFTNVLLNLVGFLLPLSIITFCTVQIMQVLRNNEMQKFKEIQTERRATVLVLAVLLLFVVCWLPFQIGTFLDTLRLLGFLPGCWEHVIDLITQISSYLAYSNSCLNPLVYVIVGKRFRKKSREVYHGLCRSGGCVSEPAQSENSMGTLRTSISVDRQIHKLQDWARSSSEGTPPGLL
Nature of the assay: guinea-pig ileum (GPI) in vitro, antagonism of BK. Type of assay: cell-based. The settings on record: Table E. The method, boiled down: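 Isolated guinea-pig ileum in tissue bath with strain-gauge recording; antagonism of bradykinin contractions. Potency expressed as pA2 (Schild method: negative log molar antagonist concentration causing two-fold agonist potency shift); percentage recovery also determined.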

A further assay deals with T4, NK2 receptor (Oryctolagus cuniculus, UniProt P79218).
T4 construct: reduce a sustained contractile response produced by neurokinin A by 50%; from tissue; host or cells: contractile tissue preparation (rabbit pulmonary artery per the earlier reading)
T4 sequence (P79218 1-384): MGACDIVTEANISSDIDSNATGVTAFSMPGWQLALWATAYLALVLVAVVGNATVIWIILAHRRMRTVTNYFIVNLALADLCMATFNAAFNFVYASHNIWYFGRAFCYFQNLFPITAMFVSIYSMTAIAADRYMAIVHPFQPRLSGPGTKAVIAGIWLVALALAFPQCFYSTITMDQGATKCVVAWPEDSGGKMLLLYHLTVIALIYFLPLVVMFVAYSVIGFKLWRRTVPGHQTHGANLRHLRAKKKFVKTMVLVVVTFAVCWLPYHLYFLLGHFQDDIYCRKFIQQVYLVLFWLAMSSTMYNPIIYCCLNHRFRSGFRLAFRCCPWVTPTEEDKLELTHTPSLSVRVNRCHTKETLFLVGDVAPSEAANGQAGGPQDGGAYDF
Nature of the assay: rabbit pulmonary artery, reduction of neurokinin A contraction. Type of assay: cell-based. The conditions noted are these: Table R; negative log of molar concentration reducing sustained neurokinin A contraction by 50%; read-out: NK2 Rabbit Pulm Art log (converted). As to the method: The heterodimers thus obtained were tested for activity as heretofore described, the results being shown in Table R. In this Table -log [M] represents the negative log of the molar concentration of the antagonist necessary to reduce a sustained contractile response produced by neurokinin A by 50%.

Each structure is given as a SMILES string. Where two headings read alike, the source gives them in different places. Peptide text beside a SMILES is read from it.

Consider `CC(C)C[C@H](NC(=O)[C@@H](Cc1ccccc1)NC(=O)[C@H](CSC1CC(=O)N(CCCCCCN2C(=O)CC(SC[C@H](NC(=O)[C@H](Cc3ccccc3)NC(=O)CNC(=O)[C@@H]3C[C@@H](O)CN3C(=O)[C@@H]3CCCN3C(=O)[C@H](CCCNC(=N)N)NC(=O)[C@H](N)CCCNC(=N)N)C(=O)N[C@H](Cc3ccccc3)C(=O)N[C@@H](CC(C)C)C(=O)N[C@@H](CCCNC(=N)N)C(=O)O)C2=O)C1=O)NC(=O)[C@H](Cc1ccccc1)NC(=O)CNC(=O)[C@@H]1C[C@@H](O)CN1C(=O)[C@@H]1CCCN1C(=O)[C@H](CCCNC(=N)N)NC(=O)[C@H](N)CCCNC(=N)N)C(=O)N[C@@H](CCCNC(=N)N)C(=O)O` (stereo partly drawn) [CP-0127] (HELM PEPTIDE1{[dR].R.P.[Hyp].G.F.C.[dF].L.R}|PEPTIDE2{[dR].R.P.[Hyp].G.F.C.[dF].L.R}|CHEM1{[O=C1CC([*:1])C(=O)N1CCCCCCN1C(=O)CC([*:2])C1=O]}$PEPTIDE1,CHEM1,7:R3-1:R1|PEPTIDE2,CHEM1,7:R3-1:R2$$$V2.0), for which the “pA2 DIMER” value on BK2 receptor [1] came out at 8.8 ± 0.3. The “BK1 RABBIT AORTA IC50” value at BK1 receptor is on record as “Inactive”. The Kb on BK2 receptor [2] (BK2 RAT UTERUS pA2, Table G) was 3.16 nM; on BK2 receptor [2] (pA2 (UTERUS), Table D, effect of linker length), 1.58 nM. The “GPI pA2” value on BK2 receptor [3] is listed as 7.7 ± 0.2.

Take `CC(C)C[C@H](NC(=O)[C@@H](Cc1ccccc1)NC(=O)[C@H](CSC1CC(=O)N(CCCCCCN2C(=O)CC(SC[C@H](N)C(=O)N[C@@H](Cc3ccc(O)cc3)C(=O)N[C@H](Cc3c[nH]c4ccccc34)C(=O)N[C@H](C(=O)N[C@H](Cc3c[nH]c4ccccc34)C(=O)N[C@H](Cc3c[nH]c4ccccc34)C(=O)N[C@@H](CCCNC(=N)N)C(N)=O)C(C)C)C2=O)C1=O)NC(=O)[C@H](Cc1ccccc1)NC(=O)CNC(=O)[C@@H]1C[C@@H](O)CN1C(=O)[C@@H]1CCCN1C(=O)[C@H](CCCNC(=N)N)NC(=O)[C@H](N)CCCNC(=N)N)C(=O)N[C@@H](CCCNC(=N)N)C(=O)O` (stereo partly drawn) [CP-0411] (HELM PEPTIDE1{[dR].R.P.[Hyp].G.F.C.[dF].L.R}|PEPTIDE2{C.Y.[dW].V.[dW].[dW].R.[am]}|CHEM1{[O=C1CC([*:1])C(=O)N1CCCCCCN1C(=O)CC([*:2])C1=O]}$PEPTIDE1,CHEM1,7:R3-1:R1|PEPTIDE2,CHEM1,1:R3-1:R2$$$V2.0; N-terminus assumed): the IC50 at NK2 receptor is 3.16 µM. Besides, on BK2 receptor [2], the Kb is 31.6 nM.

As for `CC(C)C[C@H](NC(=O)[C@@H](Cc1ccccc1)NC(=O)[C@H](CSC1CC(=O)N(CCCCCCN2C(=O)CC(SC[C@H](NC(=O)[C@@H](Cc3c[nH]c4ccccc34)NC(=O)[C@H](Cc3ccc(O)cc3)NC(=O)[C@@H](N)CC(=O)O)C(=O)N[C@H](Cc3c[nH]c4ccccc34)C(=O)N[C@H](Cc3c[nH]c4ccccc34)C(=O)N[C@@H](CCCNC(=N)N)C(N)=O)C2=O)C1=O)NC(=O)[C@H](Cc1ccccc1)NC(=O)CNC(=O)[C@@H]1C[C@@H](O)CN1C(=O)[C@@H]1CCCN1C(=O)[C@H](CCCNC(=N)N)NC(=O)[C@H](N)CCCNC(=N)N)C(=O)N[C@@H](CCCNC(=N)N)C(=O)O` (stereo partly drawn) [CP-0414] (HELM PEPTIDE1{[dR].R.P.[Hyp].G.F.C.[dF].L.R}|PEPTIDE2{D.Y.[dW].C.[dW].[dW].R.[am]}|CHEM1{[O=C1CC([*:1])C(=O)N1CCCCCCN1C(=O)CC([*:2])C1=O]}$PEPTIDE1,CHEM1,7:R3-1:R1|PEPTIDE2,CHEM1,4:R3-1:R2$$$V2.0; N-terminus assumed), the IC50 at NK2 receptor is 6.31 µM. This molecule also showed a Kb at BK2 receptor [2] of 15.8 nM.

`CC(C)C[C@H](NC(=O)[C@@H](Cc1ccccc1)NC(=O)[C@H](CSC1CC(=O)N(CCCCCCN2C(=O)CC(SC[C@H](NC(=O)[C@@H](NC(=O)[C@@H](Cc3c[nH]c4ccccc34)NC(=O)[C@H](Cc3ccc(O)cc3)NC(=O)[C@@H](N)CC(=O)O)C(C)C)C(=O)N[C@H](Cc3c[nH]c4ccccc34)C(=O)N[C@@H](CCCNC(=N)N)C(N)=O)C2=O)C1=O)NC(=O)[C@H](Cc1ccccc1)NC(=O)CNC(=O)[C@@H]1C[C@@H](O)CN1C(=O)[C@@H]1CCCN1C(=O)[C@H](CCCNC(=N)N)NC(=O)[C@H](N)CCCNC(=N)N)C(=O)N[C@@H](CCCNC(=N)N)C(=O)O` (stereo partly drawn) [CP-0415] (HELM PEPTIDE1{[dR].R.P.[Hyp].G.F.C.[dF].L.R}|PEPTIDE2{D.Y.[dW].V.C.[dW].R.[am]}|CHEM1{[O=C1CC([*:1])C(=O)N1CCCCCCN1C(=O)CC([*:2])C1=O]}$PEPTIDE1,CHEM1,7:R3-1:R1|PEPTIDE2,CHEM1,5:R3-1:R2$$$V2.0; N-terminus assumed): the IC50 at NK2 receptor is 6.31 µM. The Kb on BK2 receptor [2] was 15.8 nM.

Turning to `CC(C)C[C@H](NC(=O)[C@@H](Cc1ccccc1)NC(=O)[C@H](CSC1CC(=O)N(CCCCCCN2C(=O)CC(SC[C@H](NC(=O)[C@@H](Cc3c[nH]c4ccccc34)NC(=O)[C@@H](NC(=O)[C@@H](Cc3c[nH]c4ccccc34)NC(=O)[C@H](Cc3ccc(O)cc3)NC(=O)[C@@H](N)CC(=O)O)C(C)C)C(=O)N[C@@H](CCCNC(=N)N)C(N)=O)C2=O)C1=O)NC(=O)[C@H](Cc1ccccc1)NC(=O)CNC(=O)[C@@H]1C[C@@H](O)CN1C(=O)[C@@H]1CCCN1C(=O)[C@H](CCCNC(=N)N)NC(=O)[C@H](N)CCCNC(=N)N)C(=O)N[C@@H](CCCNC(=N)N)C(=O)O` (stereo partly drawn) [CP-0416] (HELM PEPTIDE1{[dR].R.P.[Hyp].G.F.C.[dF].L.R}|PEPTIDE2{D.Y.[dW].V.[dW].C.R.[am]}|CHEM1{[O=C1CC([*:1])C(=O)N1CCCCCCN1C(=O)CC([*:2])C1=O]}$PEPTIDE1,CHEM1,7:R3-1:R1|PEPTIDE2,CHEM1,6:R3-1:R2$$$V2.0; N-terminus assumed), the IC50 at NK2 receptor is 2.51 µM. Moreover, the Kb on BK2 receptor [2] was 2 nM.

With `CC(C)C[C@H](NC(=O)[C@@H](Cc1ccccc1)NC(=O)[C@H](CSC1CC(=O)N(CCCCCCN2C(=O)CC(SC[C@H](NC(=O)[C@@H](Cc3c[nH]c4ccccc34)NC(=O)[C@@H](Cc3c[nH]c4ccccc34)NC(=O)[C@@H](NC(=O)[C@@H](Cc3c[nH]c4ccccc34)NC(=O)[C@H](Cc3ccc(O)cc3)NC(=O)[C@@H](N)CC(=O)O)C(C)C)C(N)=O)C2=O)C1=O)NC(=O)[C@H](Cc1ccccc1)NC(=O)CNC(=O)[C@@H]1C[C@@H](O)CN1C(=O)[C@@H]1CCCN1C(=O)[C@H](CCCNC(=N)N)NC(=O)[C@H](N)CCCNC(=N)N)C(=O)N[C@@H](CCCNC(=N)N)C(=O)O` (stereo partly drawn) [CP-0417] (HELM PEPTIDE1{[dR].R.P.[Hyp].G.F.C.[dF].L.R}|PEPTIDE2{D.Y.[dW].V.[dW].[dW].C.[am]}|CHEM1{[O=C1CC([*:1])C(=O)N1CCCCCCN1C(=O)CC([*:2])C1=O]}$PEPTIDE1,CHEM1,7:R3-1:R1|PEPTIDE2,CHEM1,7:R3-1:R2$$$V2.0), at NK2 receptor, the IC50 was 2.51 µM. Also, the Kb on BK2 receptor [2] was 10 nM.

(Values after patent US5620958A, “Bradykinin antagonists” (Coretech, Inc., priority 1994, dated 1997).)
